Measurements reported in ChEMBL document CHEMBL3351387, “Bioisosteric replacement of an acylureido moiety attached to an indolin-2-one scaffold with a malonamido or a 2/4-pyridinoylamido moiety produces a selectively potent Aurora-B inhibitor” (Eur J Med Chem, 2014).

Key:
HepG2 = assay: Cytotoxicity against human HepG2 cells by SRB assay; type: cell-based
A549 [1] = assay: Cytotoxicity against human A549 cells by SRB assay; type: cell-based
Aurora kinase B = Aurora kinase B (Homo sapiens, UniProt Q96GD4); assay: Inhibition of Aurora B (unknown origin) using H-LRRASLG substrate by radioisotope-based P81 filter-binding assay
Chain of Aurora kinase B (Q96GD4 whole entry): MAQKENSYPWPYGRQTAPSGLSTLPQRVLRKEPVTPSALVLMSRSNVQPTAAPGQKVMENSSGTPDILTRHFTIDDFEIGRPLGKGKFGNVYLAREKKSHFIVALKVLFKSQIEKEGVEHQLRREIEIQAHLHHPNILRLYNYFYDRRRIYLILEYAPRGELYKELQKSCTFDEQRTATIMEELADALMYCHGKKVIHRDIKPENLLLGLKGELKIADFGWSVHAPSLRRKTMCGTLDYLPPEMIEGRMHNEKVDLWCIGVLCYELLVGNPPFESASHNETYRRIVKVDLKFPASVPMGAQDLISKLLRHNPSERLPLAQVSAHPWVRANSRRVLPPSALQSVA

A549 [2] = assay: Antimigratory activity against human A549 cells assessed as inhibition of cell migration after 8 to 16 hrs by scratch wound model assay
A549 [3] = assay: Anti-invasive activity against human A549 cells assessed as inhibition of cell invasion by transwell invasion assay
[4] = biological target: Platelet-derived growth factor receptor beta (Homo sapiens, UniProt P09619); assay: Inhibition of PDGFRbeta (unknown origin) using poly[Glu:Tyr] (4:1) substrate by radioisotope-based P81 filter-binding assay
Chain of Platelet-derived growth factor receptor beta (P09619 whole entry): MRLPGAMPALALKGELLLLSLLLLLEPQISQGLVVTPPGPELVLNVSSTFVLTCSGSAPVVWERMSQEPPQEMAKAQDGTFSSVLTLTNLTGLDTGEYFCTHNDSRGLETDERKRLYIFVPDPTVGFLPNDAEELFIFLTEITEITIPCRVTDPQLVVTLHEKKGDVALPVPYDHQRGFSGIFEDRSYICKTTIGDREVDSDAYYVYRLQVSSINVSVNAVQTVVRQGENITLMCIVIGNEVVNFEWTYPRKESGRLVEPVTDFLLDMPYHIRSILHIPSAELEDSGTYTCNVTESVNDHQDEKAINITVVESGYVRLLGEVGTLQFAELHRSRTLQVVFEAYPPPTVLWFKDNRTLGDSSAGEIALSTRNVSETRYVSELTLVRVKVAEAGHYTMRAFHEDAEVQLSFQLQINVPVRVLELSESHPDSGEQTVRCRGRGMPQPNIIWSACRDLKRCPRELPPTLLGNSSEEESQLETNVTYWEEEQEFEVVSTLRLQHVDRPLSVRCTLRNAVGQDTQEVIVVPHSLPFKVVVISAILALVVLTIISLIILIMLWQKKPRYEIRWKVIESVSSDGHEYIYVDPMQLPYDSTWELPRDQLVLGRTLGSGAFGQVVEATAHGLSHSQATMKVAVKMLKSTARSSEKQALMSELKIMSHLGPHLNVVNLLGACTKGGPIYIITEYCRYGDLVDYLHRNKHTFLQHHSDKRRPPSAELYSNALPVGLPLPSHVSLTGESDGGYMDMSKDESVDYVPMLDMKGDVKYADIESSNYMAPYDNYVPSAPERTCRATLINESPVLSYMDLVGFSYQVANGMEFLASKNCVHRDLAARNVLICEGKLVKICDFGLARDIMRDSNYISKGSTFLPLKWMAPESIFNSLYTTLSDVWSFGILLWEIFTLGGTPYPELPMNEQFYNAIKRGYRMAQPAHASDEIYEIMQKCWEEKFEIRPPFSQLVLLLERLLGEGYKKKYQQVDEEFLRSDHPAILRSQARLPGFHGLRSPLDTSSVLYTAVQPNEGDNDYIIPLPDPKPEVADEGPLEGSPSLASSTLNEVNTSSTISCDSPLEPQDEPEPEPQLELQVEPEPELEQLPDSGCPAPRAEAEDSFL

[5] = biological target: T1, Receptor-type tyrosine-protein kinase FLT3 (Homo sapiens, UniProt P36888); assay: Inhibition of Flt3 (unknown origin) using EAIYAAPFAKKK substrate by radioisotope-based P81 filter-binding assay
T1 sequence (P36888 whole entry): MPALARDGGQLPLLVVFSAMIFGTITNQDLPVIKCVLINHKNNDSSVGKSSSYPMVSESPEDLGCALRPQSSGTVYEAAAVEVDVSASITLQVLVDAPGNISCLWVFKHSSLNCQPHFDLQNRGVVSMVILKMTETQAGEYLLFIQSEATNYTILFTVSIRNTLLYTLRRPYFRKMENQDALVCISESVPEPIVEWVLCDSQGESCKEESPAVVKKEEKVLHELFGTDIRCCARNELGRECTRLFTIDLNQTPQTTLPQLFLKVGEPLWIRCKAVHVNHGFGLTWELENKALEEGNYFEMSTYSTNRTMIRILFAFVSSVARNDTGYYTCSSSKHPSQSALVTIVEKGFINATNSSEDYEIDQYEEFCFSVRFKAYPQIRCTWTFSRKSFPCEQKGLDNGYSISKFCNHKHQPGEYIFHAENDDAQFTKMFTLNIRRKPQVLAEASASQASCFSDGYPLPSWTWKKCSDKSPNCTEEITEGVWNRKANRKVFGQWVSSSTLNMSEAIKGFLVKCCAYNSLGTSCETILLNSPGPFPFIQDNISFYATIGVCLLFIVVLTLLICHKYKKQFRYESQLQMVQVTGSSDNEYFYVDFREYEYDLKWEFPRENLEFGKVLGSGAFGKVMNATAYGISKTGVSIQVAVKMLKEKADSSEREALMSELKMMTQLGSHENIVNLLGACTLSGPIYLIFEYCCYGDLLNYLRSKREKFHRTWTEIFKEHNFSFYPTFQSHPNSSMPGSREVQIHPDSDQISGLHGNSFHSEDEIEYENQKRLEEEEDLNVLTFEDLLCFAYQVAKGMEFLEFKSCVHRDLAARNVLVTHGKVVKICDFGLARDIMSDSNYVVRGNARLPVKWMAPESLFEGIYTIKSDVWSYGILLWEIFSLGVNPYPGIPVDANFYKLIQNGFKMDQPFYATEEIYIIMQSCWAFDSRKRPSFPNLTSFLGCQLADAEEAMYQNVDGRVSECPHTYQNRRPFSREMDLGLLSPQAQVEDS

[6] = biological target: Platelet-derived growth factor receptor alpha (Homo sapiens, UniProt P16234); assay: Inhibition of PDGFRalpha (unknown origin) using poly[Glu:Tyr] (4:1) substrate by radioisotope-based P81 filter-binding assay
Chain of Platelet-derived growth factor receptor alpha (P16234 whole entry): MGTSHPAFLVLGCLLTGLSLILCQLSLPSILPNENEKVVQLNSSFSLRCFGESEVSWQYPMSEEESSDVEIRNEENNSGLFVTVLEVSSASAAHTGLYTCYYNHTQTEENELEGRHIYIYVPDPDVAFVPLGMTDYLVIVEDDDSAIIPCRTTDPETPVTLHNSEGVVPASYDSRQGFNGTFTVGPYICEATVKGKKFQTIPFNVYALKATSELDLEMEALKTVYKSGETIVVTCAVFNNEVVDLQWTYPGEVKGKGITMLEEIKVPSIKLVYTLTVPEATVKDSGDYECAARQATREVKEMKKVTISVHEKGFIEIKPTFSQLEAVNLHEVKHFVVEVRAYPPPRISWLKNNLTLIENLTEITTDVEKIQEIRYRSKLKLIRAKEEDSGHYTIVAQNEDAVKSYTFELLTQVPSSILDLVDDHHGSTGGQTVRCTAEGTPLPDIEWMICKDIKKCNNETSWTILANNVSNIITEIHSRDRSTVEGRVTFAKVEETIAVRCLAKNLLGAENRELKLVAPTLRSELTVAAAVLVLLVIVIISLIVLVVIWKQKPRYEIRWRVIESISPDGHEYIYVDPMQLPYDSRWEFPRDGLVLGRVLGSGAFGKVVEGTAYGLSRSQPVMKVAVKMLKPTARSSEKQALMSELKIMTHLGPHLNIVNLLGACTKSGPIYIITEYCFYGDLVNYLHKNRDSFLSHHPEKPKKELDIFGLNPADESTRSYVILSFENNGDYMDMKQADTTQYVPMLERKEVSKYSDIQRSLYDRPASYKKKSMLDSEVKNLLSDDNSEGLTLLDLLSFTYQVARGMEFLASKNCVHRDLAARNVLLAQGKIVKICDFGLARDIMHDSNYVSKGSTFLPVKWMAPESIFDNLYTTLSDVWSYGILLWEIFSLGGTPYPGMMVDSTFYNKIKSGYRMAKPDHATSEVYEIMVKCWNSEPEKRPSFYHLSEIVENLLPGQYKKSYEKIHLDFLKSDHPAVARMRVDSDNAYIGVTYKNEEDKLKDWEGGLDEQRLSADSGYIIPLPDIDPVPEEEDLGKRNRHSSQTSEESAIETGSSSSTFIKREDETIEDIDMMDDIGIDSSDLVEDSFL

[7] = biological target: Hepatocyte growth factor receptor (Homo sapiens, UniProt P08581); assay: Inhibition of c-Met (unknown origin) using KKKSPGEYVNIEFG substrate by radioisotope-based P81 filter-binding assay
Chain of Hepatocyte growth factor receptor (P08581 whole entry): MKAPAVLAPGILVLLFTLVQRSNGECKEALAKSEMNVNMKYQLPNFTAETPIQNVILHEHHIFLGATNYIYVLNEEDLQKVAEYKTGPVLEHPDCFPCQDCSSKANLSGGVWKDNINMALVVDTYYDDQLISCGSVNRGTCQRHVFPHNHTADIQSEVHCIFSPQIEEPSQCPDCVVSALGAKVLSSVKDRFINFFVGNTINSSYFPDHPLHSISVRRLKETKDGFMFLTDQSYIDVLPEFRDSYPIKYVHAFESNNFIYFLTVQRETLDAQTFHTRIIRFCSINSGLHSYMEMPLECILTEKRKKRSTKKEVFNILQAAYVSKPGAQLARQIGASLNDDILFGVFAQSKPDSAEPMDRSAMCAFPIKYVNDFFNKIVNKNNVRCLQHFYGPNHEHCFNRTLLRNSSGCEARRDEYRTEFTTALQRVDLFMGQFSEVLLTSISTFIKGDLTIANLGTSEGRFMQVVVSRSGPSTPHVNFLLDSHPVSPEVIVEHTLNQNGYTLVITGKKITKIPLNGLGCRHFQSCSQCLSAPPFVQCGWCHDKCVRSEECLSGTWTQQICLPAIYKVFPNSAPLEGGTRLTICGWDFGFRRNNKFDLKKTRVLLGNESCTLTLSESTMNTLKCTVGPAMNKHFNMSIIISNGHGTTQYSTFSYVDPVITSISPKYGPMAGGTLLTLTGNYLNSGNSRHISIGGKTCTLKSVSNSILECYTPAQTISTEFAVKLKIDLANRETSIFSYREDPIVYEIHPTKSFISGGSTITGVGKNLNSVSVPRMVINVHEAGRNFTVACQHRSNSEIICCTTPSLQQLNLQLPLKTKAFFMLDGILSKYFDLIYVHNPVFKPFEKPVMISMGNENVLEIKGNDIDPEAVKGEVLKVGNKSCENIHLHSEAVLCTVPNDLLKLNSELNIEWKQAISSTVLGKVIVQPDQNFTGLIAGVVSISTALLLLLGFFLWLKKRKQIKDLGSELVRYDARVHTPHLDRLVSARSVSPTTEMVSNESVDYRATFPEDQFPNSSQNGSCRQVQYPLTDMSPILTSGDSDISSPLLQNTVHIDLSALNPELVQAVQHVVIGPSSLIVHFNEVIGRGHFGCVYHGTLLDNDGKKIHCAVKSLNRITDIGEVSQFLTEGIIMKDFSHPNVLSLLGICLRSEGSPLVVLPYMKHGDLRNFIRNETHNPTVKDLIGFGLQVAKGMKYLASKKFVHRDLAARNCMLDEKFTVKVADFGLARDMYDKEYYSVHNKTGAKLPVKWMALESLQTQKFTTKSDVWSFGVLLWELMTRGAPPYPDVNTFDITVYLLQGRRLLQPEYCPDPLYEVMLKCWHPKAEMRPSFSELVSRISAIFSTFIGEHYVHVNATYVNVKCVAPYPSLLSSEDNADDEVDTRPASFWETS

Aurora kinase A = biological target: T2, Aurora kinase A (Homo sapiens, UniProt O14965); assay: Inhibition of Aurora A (unknown origin) using H-LRRASLG substrate by radioisotope-based P81 filter-binding assay
T2 sequence (O14965 whole entry): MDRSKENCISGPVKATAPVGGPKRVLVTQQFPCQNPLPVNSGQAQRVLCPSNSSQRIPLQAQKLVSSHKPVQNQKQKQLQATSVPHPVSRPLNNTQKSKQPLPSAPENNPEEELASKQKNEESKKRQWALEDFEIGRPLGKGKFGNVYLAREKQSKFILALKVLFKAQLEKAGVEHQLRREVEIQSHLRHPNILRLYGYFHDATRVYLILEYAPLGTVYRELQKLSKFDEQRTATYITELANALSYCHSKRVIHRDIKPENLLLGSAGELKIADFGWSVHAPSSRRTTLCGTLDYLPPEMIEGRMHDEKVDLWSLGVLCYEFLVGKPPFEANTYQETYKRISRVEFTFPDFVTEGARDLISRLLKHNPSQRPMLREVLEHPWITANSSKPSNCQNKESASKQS

Aurora kinase C = biological target: T3, Aurora kinase C (Homo sapiens, UniProt Q9UQB9); assay: Inhibition of Aurora C (unknown origin) using H-LRRASLG substrate by radioisotope-based P81 filter-binding assay
T3 sequence (Q9UQB9 whole entry): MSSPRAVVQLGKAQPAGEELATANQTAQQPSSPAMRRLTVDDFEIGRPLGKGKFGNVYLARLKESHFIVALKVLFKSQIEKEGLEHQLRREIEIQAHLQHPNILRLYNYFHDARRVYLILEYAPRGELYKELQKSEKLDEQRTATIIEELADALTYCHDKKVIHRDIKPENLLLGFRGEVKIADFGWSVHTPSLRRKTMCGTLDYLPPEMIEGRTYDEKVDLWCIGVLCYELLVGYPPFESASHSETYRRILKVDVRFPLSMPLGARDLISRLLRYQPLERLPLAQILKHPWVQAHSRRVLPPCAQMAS

[8] = biological target: Vascular endothelial growth factor receptor 2 (Homo sapiens, UniProt P35968); assay: Inhibition of VEGFR2 (unknown origin) using poly[Glu:Tyr] substrate by radioisotope-based P81 filter-binding assay

Row | SMILES | IC50 (HepG2) [µM] | IC50 (A549 [1]) [µM] | other results
1 | O=C1Nc2ccc(NC(=O)c3cccn(-c4ccc(F)cc4)c3=O)cc2/C1=C/c1ccc[nH]1 | 5.4 | 5.4 | –
2 | O=C1Nc2cccc(NC(=O)c3cccn(-c4ccc(F)cc4)c3=O)c2/C1=C/c1ccc[nH]1 | 4.6 | 4.8 | –
3 | O=C1Nc2cc(NC(=O)c3cccn(-c4cccc(Cl)c4)c3=O)ccc2/C1=C/c1ccc[nH]1 | 4.9 | 1.5 | –
4 | COc1ccc(-c2c[nH]cc(C(=O)Nc3ccc4c(c3)NC(=O)/C4=C\c3[nH]c(C)c(C(=O)O)c3C)c2=O)cc1 | > 10 | > 10 | –
5 | O=C1Nc2cc(NC(=O)c3cccn(-c4ccc(C(F)(F)F)cc4)c3=O)ccc2/C1=C/c1ccc[nH]1 | 3.1 | 3.7 | –
6 | O=C1Nc2c(NC(=O)c3cccn(-c4ccc(F)cc4)c3=O)cccc2/C1=C/c1ccc[nH]1 | 3.9 | 4.5 | –
7 | O=C1Nc2cc(NC(=O)C3(C(=O)Nc4ccc(F)cc4)CC3)ccc2/C1=C/c1ccc[nH]1 | 1 | 0.9 | IC50 (Aurora kinase B): 0.253 µM
8 | Cc1ccc(-n2cccc(C(=O)Nc3ccc4c(c3)NC(=O)/C4=C\c3ccc[nH]3)c2=O)cc1 | 4.2 | 1.6 | –
9 | Cc1[nH]c(/C=C2\C(=O)Nc3cc(NC(=O)c4c[nH]cc(-c5ccc(F)cc5)c4=O)ccc32)c(C)c1CC(=O)N1CCN(C)CC1 | 0.7 | 0.6 | –
10 | Cc1[nH]c(/C=C2\C(=O)Nc3cc(NC(=O)c4cccn(-c5ccc(F)cc5)c4=O)ccc32)c(C)c1C(=O)O | 6.1 | 6.3 | IC50 (A549 [2]): 7.9 µM; IC50 (A549 [3]): > 10 µM
11 | Cc1[nH]c(/C=C2\C(=O)Nc3cc(NC(=O)c4cccn(C)c4=O)ccc32)c(C)c1C(=O)O | 8.1 | 6.6 | –
12 | O=C1Nc2cc(NC(=O)c3c[nH]cc(-c4ccc(Cl)cc4)c3=O)ccc2/C1=C/c1ccc[nH]1 | 0.7 | < 0.1 | –
13 | COc1ccc(NC(=O)C2(C(=O)Nc3ccc4c(c3)NC(=O)/C4=C\c3ccc[nH]3)CC2)cc1 | 3.9 | 5.9 | –
14 | O=C1Nc2cc(NC(=O)c3c[nH]cc(-c4ccc(C(F)(F)F)cc4)c3=O)ccc2/C1=C/c1ccc[nH]1 | 0.7 | 0.5 | –
15 | COc1ccc(-n2cccc(C(=O)Nc3ccc4c(c3)NC(=O)/C4=C\c3ccc[nH]3)c2=O)cc1 | 5.6 | 3.3 | –
16 | O=C1Nc2cc(NC(=O)c3c[nH]cc(-c4ccccc4)c3=O)ccc2/C1=C/c1ccc[nH]1 | 1.1 | 0.5 | IC50 (Aurora kinase B): 0.0331 µM
17 | Cc1ccc(-c2c[nH]cc(C(=O)Nc3ccc4c(c3)NC(=O)/C4=C\c3ccc[nH]3)c2=O)cc1 | 0.7 | 0.5 | –

Row | SMILES | IC50 (HepG2) [µM] | IC50 (A549 [1]) [µM] | other results
18 | COc1ccc(NC(=O)CC(=O)Nc2ccc3c(c2)NC(=O)/C3=C\c2ccc[nH]2)cc1 | 2.8 | 3.8 | IC50 [4]: 0.177 µM; IC50 [5]: 0.0166 µM
19 | COc1ccc(NC(=O)CC(=O)Nc2ccc3c(c2)NC(=O)/C3=C\c2[nH]c(C)c(C(=O)O)c2C)cc1 | 7.8 | 5.4 | IC50 [6]: < 0.001 µM; IC50 [7]: 0.0311 µM; IC50 (Aurora kinase A): 0.203 µM; IC50 [4]: 0.0081 µM; IC50 (Aurora kinase B): 0.0059 µM; IC50 (Aurora kinase C): 0.153 µM; IC50 [5]: 0.0064 µM
20 | O=C1Nc2cc(NC(=O)c3cccn(CCO)c3=O)ccc2/C1=C/c1ccc[nH]1 | 3.9 | 4.5 | –
21 | CCN(CCO)CCCOc1ccc2c(Nc3cc(CC(=O)Nc4cccc(F)c4)[nH]n3)ncnc2c1 [DEFOSBARASERTIB] | 0.1 | 0.1 | IC50 (A549 [2]): 8.3 µM; IC50 (A549 [3]): 5.4 µM
22 | O=C(CC(=O)Nc1ccc2c(c1)NC(=O)/C2=C\c1ccc[nH]1)Nc1ccc(F)cc1 | 1.8 | 0.7 | IC50 [6]: 0.0072 µM; IC50 (Aurora kinase A): 0.552 µM; IC50 [8]: 1.77 µM; IC50 [4]: 0.0869 µM; IC50 (Aurora kinase C): 0.0672 µM; IC50 [5]: 0.011 µM
23 | O=C1Nc2cc(NC(=O)c3cccn(-c4ccccc4)c3=O)ccc2/C1=C/c1ccc[nH]1 | 5.8 | 4.7 | –
24 | Cc1[nH]c(/C=C2\C(=O)Nc3cc(NC(=O)c4c[nH]cc(-c5ccc(F)cc5)c4=O)ccc32)c(C)c1C(=O)N1CCN(C)CC1 | 0.7 | 0.6 | –
25 | Cc1[nH]c(/C=C2\C(=O)Nc3cc(NC(=O)c4c[nH]cc(-c5ccc(F)cc5)c4=O)ccc32)c(C)c1CC(=O)N1CCOCC1 | 6.7 | 5.2 | –
26 | COc1ccc(NC(=O)CC(=O)Nc2ccc3c(c2)NC(=O)/C3=C\c2[nH]c(C)c(C(=O)NCCN3CCCC3)c2C)cc1 | 5.1 | 5.4 | IC50 [6]: < 0.001 µM; IC50 [7]: 0.0106 µM; IC50 [8]: 0.0207 µM; IC50 [4]: 0.00154 µM; IC50 (Aurora kinase B): 0.093 µM; IC50 [5]: 0.0021 µM
27 | O=C1Nc2cc(NC(=O)c3c[nH]cc(-c4ccc(F)cc4)c3=O)ccc2/C1=C/c1ccc[nH]1 | 1.4 | 0.5 | IC50 (A549 [2]): 6.6 µM; IC50 (A549 [3]): 7.8 µM
28 | Cn1cccc(C(=O)Nc2ccc3c(c2)NC(=O)/C3=C\c2ccc[nH]2)c1=O | 7 | 5.9 | –
29 | O=C1Nc2cc(NC(=O)c3cccn(-c4ccc(Cl)cc4)c3=O)ccc2/C1=C/c1ccc[nH]1 | 6.7 | 4.9 | –
30 | Cc1[nH]c(/C=C2\C(=O)Nc3cc(NC(=O)c4c[nH]cc(-c5ccc(F)cc5)c4=O)ccc32)c(C)c1C(=O)N1CCOCC1 | 6.7 | 5.8 | –
31 | O=C1Nc2cc(NC(=O)c3cccn(-c4ccc(F)cc4)c3=O)ccc2/C1=C/c1ccc[nH]1 | 0.9 | 0.7 | IC50 (A549 [2]): 7.3 µM; IC50 (A549 [3]): > 10 µM
32 | Cc1c[nH]cc(C(=O)Nc2ccc3c(c2)NC(=O)/C3=C\c2ccc[nH]2)c1=O | 3.1 | 5.5 | –
33 | COc1ccc(-c2c[nH]cc(C(=O)Nc3ccc4c(c3)NC(=O)/C4=C\c3ccc[nH]3)c2=O)cc1 | 0.8 | 0.6 | –
34 | O=C1Nc2cc(NC(=O)c3c[nH]cc(-c4cccc(Cl)c4)c3=O)ccc2/C1=C/c1ccc[nH]1 | 0.6 | 0.5 | –
